We go through 22 compounds from patent US11701370B2, “Phosphonium ion channel blockers and methods for use” (Nocion Therapeutics, Inc., priority 2019, dated 2023).

Series [1] deals with T1, NaV1.7 (Homo sapiens, UniProt Q15858).
T1 construct: expressed in transfected cells; tetracycline-inducible, kept under hygromycin and blasticidin selection
In words: Internal block: intracellular inhibition of NaV1.7 current, whole cell patch clamp. Type of series: cell-based. Particulars: compound in internal solution; for inhibition at 10 µM: 10 μM test concentration; for inhibition at 3 µM: 3 μM test concentration. Here is the method: (§1) NaV1.7 was expressed upon induction with tetracycline. Cells were cultured in DMEM containing 10% dialyzed Fetal Bovine Serum (VWR, Radnor, Pa.), 1% Glutamax (VWR, Radnor, Pa.), 1% Penicillin-Streptomycin (VWR, Radnor, Pa.), 100 mg/L Hygromycin (Thermo Fisher Scientific, Waltham, Mass. and 5 mg/L Blasticidin (Alfa Aesar, Haverhill, Mass.). Cells were grown and maintained at 37° C. in a humidified environment containing 10% CO2 in air. Cells were detached from the culture flask for passage and harvested using 0.05% Trypsin-EDTA (Thermo Fisher Scientific, Waltham, Mass.). To induce NaV1.7, cells were induced with tetracycline (0.1-1 μg/mL, IBI Scientific, Peosta, Iowa) the day before recording and plated onto 24-well plates. Cells were washed with DPBS (VWR, Radnor, Pa.), trypsinized and then triturated five times in 10 mL of growth media to break apart cell aggregates. For one 24-well plate, 2 mL of cell suspension was mixed with 23 mL of fresh growth media and 0.1-1 μg/mL tetracycline added. 1 ml of mixed media with cells was then added to each well of a 24-well plate, with a 12 mm coverslip already placed in the bottom of the well. Cells were then incubated in 37° C. and 10% CO2 overnight.
(§2) The intracellular solution contained the following (in mM) CsCl 135, NaCl 10, EGTA 10, HEPES 10, MgCl22, adjusted to pH 7.2 with CsOH. The external solution was a normal Ringer solution containing (in mM) NaCl 155, HEPES 10, glucose 10, KCl 3.5, CaCl2 1.5, MgCl2 1 adjusted to pH 7.4 with NaOH. CsCl is from Alfa Aesar, Haverhill, Mass. All other chemicals are from Sigma-Aldrich, St. Louis, Mo. In order to test the degree of internal block by test compounds the compounds were dissolved in internal solution at the indicated test concentration. […] In order to test the degree of external block by test compounds the compounds were dissolved in external solution at the indicated test concentration.
(§3) 18-24 hours after cells were induced with tetracycline, coverslips were placed into a chamber filled with Normal Ringer solution at room temperature and the chamber placed on a microscope. Pipettes were pulled from borosilicate glass on a P97 puller (Sutter Instrument, Novato, Calif.) and polished with a MF-830 Microforge (Narishige International USA, Inc, Amityville, N.Y.) to have a resistance of 1.5-2.5 MΩ when filled with CsCl internal solution at room temperature. Healthy cells (those that are round and translucent with no visible blemishes) were chosen for seal formation. A seal was formed between the pipette and the cell, and a brief pulse of suction was used to “break in” and establish the whole-cell configuration. The membrane potential was held at −100 mV before the voltage protocol began. Only cells with series resistance between 1.5-5 MΩ were retained for analysis. The voltage protocol was as follows: Cells were held at −100 mV for 12 ms followed by a hyperpolarizing step to −105 mV for 12 ms to monitor the leak. Cells were then stepped back to −100 mV for 40 ms. Cells were then depolarized to −20 mV for 10 ms and then returned to −100 mV for 26 ms (FIG. 1).
(§4) Once the recording was started, the voltage protocol was run at 30 second intervals for 5 minutes to get a stable baseline. This was followed by four 30-second periods of 5 Hz stimulation of the same voltage protocol separated by 1 minute of rest which was then followed by 0.33 Hz stimulation after the last train. Currents were recorded using PatchMaster software with Heka EPC10 (HEKA Electronics, Lambrecht, Germany). Only cells with inward current amplitudes at −20 mV between 400 pA and 4 nA were accepted. In addition, cells having leak currents greater than 10% of their current amplitudes were discarded.
(§5) The data was plotted using the Patchmaster software (HEKA Electronics, Lambrecht, Germany) and analyzed by plotting the minimum current during the voltage step to −20 mV (peak inward current) as a function of time. […]
(Patch clamp records ionic current or voltage across a cell membrane.)

Series [2] addresses T1, NaV1.7. In words: External block: extracellular inhibition of NaV1.7 current, whole cell patch clamp. Type of series: cell-based. The following applies: compound in external solution; for inhibition at 10 µM: 10 μM test concentration; for inhibition at 3 µM: 3 μM test concentration. Here is the method:
as §1, §2, §3
as §4, with “This is” for “This was”, “by” for “by four 30-second periods of”, “protocol run until the end” for “protocol separated by 1 minute”, “of experiment. […] The test compound is added for 5 minutes before washing out with normal Ringer's solution.” for “of rest which was then followed by 0.33 Hz stimulation after the last train.”
as §5

A short description of series [3]: PAMPA membrane permeability assay (artificial lipid membrane, passive diffusion). Type of series: in vitro ADME. Particulars: pH 7.4 buffer, GIT lipid, 4 hours incubation. The method, then:
The PAMPA assay (pION, Inc., Woburn Mass.) was used to determine the ability of compounds of the invention to cross an artificial lipid membrane by passive diffusion. Test compounds were dissolved in DMSO (10 mM) and diluted 200-fold in buffer (pION Inc., pH 7.4) to provide 50 uM stock solutions. Buffer (150 μL) was added to a UV blank plate and stock solutions (150 μL) were transferred to a UV reference plate. The blank and reference spectrum were read using a spectrophotometer. Stock solutions (200 μL) were added to the donor plate of the PAMPA sandwich plate and an accept plate painted with GIT lipid (pION Inc, 5 μL) was placed on top. Buffer (200 μL) was added to the acceptor plate and the PAMPA sandwich plate was incubated for 4 hours. Aliquots (150 μL) from the acceptor plate were added to a UV plate and read as acceptor spectrum. Aliquots (150 μL) of the donor solutions were added to a UV analysis plate and read as donor spectrum. The permeability coefficient of test compounds was calculated using PAMPA Explorer™ software (version 3.5.0.4) based on the AUC of the reference plate, the donor plate, and the acceptor plate.
The PAMPA permeability results (10^−6 cm/s) of representative compounds are reported as “+” (<0.1 10^−6 cm/s), “++” (0.1-2.0 10^−6 cm/s), “+++” (2.0-10.010^−6 cm/s) or “++++” (>10.0 10^−6 cm/s).
In general terms: In PAMPA a lipid-coated filter parts donor from acceptor wells.

Where a name gives a salt, the structure may show the parent alone.

T1 sequence (Q15858 whole entry): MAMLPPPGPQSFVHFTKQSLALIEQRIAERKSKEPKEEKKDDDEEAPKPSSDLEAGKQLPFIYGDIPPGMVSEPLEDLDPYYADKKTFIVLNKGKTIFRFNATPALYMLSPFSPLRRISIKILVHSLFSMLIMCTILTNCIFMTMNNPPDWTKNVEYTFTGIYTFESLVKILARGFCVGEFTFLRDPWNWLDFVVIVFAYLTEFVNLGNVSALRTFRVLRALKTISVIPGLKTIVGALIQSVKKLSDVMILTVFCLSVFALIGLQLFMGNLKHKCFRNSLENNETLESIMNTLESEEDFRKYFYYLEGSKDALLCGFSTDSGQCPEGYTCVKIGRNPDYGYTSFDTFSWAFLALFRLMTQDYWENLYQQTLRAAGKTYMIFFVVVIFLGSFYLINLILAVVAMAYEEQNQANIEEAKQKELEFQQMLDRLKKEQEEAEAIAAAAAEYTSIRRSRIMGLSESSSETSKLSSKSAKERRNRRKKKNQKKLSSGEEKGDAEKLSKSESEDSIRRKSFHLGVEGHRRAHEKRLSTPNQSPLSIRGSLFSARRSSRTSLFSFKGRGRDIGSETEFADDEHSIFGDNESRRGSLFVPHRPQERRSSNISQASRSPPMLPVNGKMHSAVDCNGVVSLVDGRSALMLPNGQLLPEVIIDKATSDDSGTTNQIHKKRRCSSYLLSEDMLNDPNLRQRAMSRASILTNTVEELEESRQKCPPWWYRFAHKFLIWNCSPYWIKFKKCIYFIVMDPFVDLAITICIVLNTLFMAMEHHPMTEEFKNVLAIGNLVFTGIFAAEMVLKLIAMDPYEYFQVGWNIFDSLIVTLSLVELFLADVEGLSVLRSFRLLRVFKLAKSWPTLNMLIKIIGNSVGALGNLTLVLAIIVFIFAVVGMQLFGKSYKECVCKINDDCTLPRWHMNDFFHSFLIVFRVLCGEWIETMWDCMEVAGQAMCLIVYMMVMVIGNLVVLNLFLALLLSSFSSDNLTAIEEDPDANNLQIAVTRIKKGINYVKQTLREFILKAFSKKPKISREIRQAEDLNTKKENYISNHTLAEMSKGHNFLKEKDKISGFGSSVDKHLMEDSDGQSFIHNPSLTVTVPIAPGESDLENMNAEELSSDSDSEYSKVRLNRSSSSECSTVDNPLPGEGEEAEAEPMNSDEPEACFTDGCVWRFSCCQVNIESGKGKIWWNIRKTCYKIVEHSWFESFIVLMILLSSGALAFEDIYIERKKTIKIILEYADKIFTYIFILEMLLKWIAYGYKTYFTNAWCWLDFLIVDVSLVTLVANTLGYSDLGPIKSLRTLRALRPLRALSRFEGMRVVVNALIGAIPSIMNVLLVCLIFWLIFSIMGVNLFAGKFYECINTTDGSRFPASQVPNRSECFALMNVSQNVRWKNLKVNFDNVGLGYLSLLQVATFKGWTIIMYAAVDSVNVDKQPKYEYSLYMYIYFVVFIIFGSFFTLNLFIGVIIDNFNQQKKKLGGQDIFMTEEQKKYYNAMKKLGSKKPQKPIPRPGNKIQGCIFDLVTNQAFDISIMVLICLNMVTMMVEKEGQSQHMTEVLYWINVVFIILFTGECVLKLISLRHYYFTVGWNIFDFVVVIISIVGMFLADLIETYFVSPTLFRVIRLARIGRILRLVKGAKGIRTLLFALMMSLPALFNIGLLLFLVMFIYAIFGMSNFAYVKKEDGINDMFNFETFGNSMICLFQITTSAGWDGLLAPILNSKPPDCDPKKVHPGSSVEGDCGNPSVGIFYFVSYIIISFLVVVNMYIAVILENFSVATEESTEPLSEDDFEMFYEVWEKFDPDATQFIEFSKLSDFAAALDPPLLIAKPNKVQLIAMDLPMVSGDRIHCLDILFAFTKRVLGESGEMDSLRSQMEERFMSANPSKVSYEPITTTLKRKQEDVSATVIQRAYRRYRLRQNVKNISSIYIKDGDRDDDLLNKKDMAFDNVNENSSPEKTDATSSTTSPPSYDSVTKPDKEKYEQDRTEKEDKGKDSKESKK

Regarding `CC[P+](CC)(CC)CC(=O)Nc1c(C)cccc1C` [Compound 1, (2-((2,6-dimethylphenyl)amino)-2-oxoethyl) triethylphosphonium bromide], the inhibition at 10 µM on NaV1.7 [1] is 70 to 95%. Also, the inhibition at 1000 µM at NaV1.7 [2] (1,000 μM test concentration) is less than 40%. The compound further displayed a Papp at 4 h, 50 uM in series [3] of less than 0.1 ×10⁻⁶ cm/s.

For the compound `CCC(C(=O)Nc1c(C)cccc1C)[P+](CC)(CC)CC` (centres unmarked) [Compound 2, (1-((2,6-dimethylphenyl)amino)-1-oxobutan-2-yl) triethylphosphonium carbonate], at NaV1.7 [1], the inhibition at 10 µM was in the range of 40 to 70%. For the same compound, the apparent permeability (Papp) at 4 h, 50 uM in series [3] is more than 10 ×10⁻⁶ cm/s.

Take `Cc1cccc(C)c1NC(=O)C[P+]1(Cc2ccccc2)CCCCCC1` [Compound 3, 1-benzyl-1-(2-((2,6-dimethylphenyl)amino)-2-oxoethyl) phosphepan-1-ium bromide]: the inhibition at 10 µM against NaV1.7 [1] was more than 95%; on NaV1.7 [2], 40 to 70%. Besides, the apparent permeability (Papp) at 4 h, 50 uM in series [3] is less than 0.1 ×10⁻⁶ cm/s.

Turning to `Cc1cccc(C)c1NC(=O)C[P+]1(Cc2ccccc2)CCCCC1.[Br-]` [Compound 4, 1-benzyl-1-(2-((2,6-dimethylphenyl)amino)-2-oxoethyl) phosphinan-1-ium bromide], the figures for the inhibition at 10 µM against NaV1.7 [1] and against NaV1.7 [2] were more than 95% and 40 to 70%, respectively. Besides, the apparent permeability coefficient (Papp) at 4 h, 50 uM in series [3] is 0.1 to 2 ×10⁻⁶ cm/s.

For the compound `Cc1cccc(C)c1NC(=O)C[P+]1(Cc2ccccc2)CCCC1` [Compound 5, 1-benzyl-1-(2-((2,6-dimethylphenyl)amino)-2-oxoethyl) phospholan-1-ium bromide], the inhibition at 10 µM at NaV1.7 [1] was 70 to 95%; against NaV1.7 [2] it was less than 40%. The apparent permeability (Papp) at 4 h, 50 uM in series [3] was in the range of 0.1 to 2 ×10⁻⁶ cm/s.

With `CC[P+](CC)(CC(=O)Nc1c(C)cccc1C)CC(=O)Nc1c(C)cccc1C` [Compound 6, bis (2-((2,6-dimethylphenyl)amino)-2-oxoethyl) diethyl phosphonium acetate], the inhibition at 10 µM at NaV1.7 [1] lay within 70 to 95%. Also, the Papp at 4 h, 50 uM in series [3] is less than 0.1 ×10⁻⁶ cm/s.

On NaV1.7 [1], `CCCC[P+](CCCC)(CCCC)CC(=O)Nc1c(C)cccc1C.[Br-]` [Compound 7, tri-n-butyl (2-((2,6-dimethylphenyl)amino)-2-oxoethyl) phosphonium bromide] yielded an inhibition at 10 µM of more than 95%. Also, in series [3], the Papp at 4 h, 50 uM lay in the range of 2 to 10 ×10⁻⁶ cm/s.

`Cc1cccc(C)c1NC(=O)C[P+](c1ccccc1)(c1ccccc1)c1ccccc1.O=C[O-]` [Compound 8, (2-((2,6-dimethylphenyl)amino)-2-oxoethyl) triphenylphosphonium formate] returned an inhibition at 10 µM on NaV1.7 [1] of more than 95%. The same compound displayed an inhibition at 3 µM on NaV1.7 [2] of 40 to 70%. In addition, the Papp at 4 h, 50 uM in series [3] is less than 0.1 ×10⁻⁶ cm/s.

On to `CCC(C(=O)Nc1c(C)cccc1C)[P+](c1ccccc1)(c1ccccc1)c1ccccc1` (centres unmarked) [Compound 9, (1-((2,6-dimethylphenyl)amino)-1-oxobutan-2-yl) triphenylphosphonium formate], for which, at NaV1.7 [1], the inhibition at 10 µM is more than 95%. Further, in series [3], the Papp at 4 h, 50 uM lay in the range of 2 to 10 ×10⁻⁶ cm/s.

Turning to `CCC(C(=O)Nc1c(C)cccc1C)[P+]1(Cc2ccccc2)CCCCC1` (centres unmarked) [Compound 10, 1-benzyl-1-(1-((2,6-dimethylphenyl)amino)-1-oxobutan-2-yl)phosphinan-1-ium formate], the inhibition at 10 µM against NaV1.7 [1] was more than 95%. Further, the inhibition at 3 µM on NaV1.7 [2] lay in the range of 40 to 70%. In series [3], this compound returned a Papp at 4 h, 50 uM of less than 0.1 ×10⁻⁶ cm/s.

The compound `CCC(C(=O)Nc1c(C)cccc1C(=O)OC)[P+]1(Cc2ccccc2)CCCCC1` (centres unmarked) [Compound 11] came in with an inhibition at 3 µM on NaV1.7 [1] of 70 to 90%. This compound registered a Papp at 4 h, 50 uM in series [3] of less than 0.1 ×10⁻⁶ cm/s.

In turn, `CCC(C(=O)Nc1c(C#N)cccc1C(=O)OC)[P+]1(Cc2ccccc2)CCCCC1` (centres unmarked) [Compound 12] displayed an inhibition at 3 µM against NaV1.7 [1] of 70 to 90%.

`CCOC(=O)c1cccc(C)c1NC(=O)C[P+]1(Cc2ccccc2)CCCCC1` [Compound 13]: the inhibition at 3 µM on NaV1.7 [1] was more than 90%; at NaV1.7 [2] it was 40 to 70%. Besides, the Papp at 4 h, 50 uM in series [3] is less than 0.1 ×10⁻⁶ cm/s.

As for `Cc1cccc(C(=O)OC(C)(C)C)c1NC(=O)C[P+]1(Cc2ccccc2)CCCCC1` [Compound 14], the inhibition at 3 µM against NaV1.7 [1] fell in the range of 40 to 70%. In series [3], this compound yielded a Papp at 4 h, 50 uM of less than 0.1 ×10⁻⁶ cm/s.

In the case of `CCOC(=O)c1cccc(F)c1NC(=O)C[P+]1(Cc2ccccc2)CCCCC1` [Compound 15], the inhibition at 3 µM against NaV1.7 [1] was 70 to 90%; against NaV1.7 [2], less than 40%. Further, the Papp at 4 h, 50 uM in series [3] was less than 0.1 ×10⁻⁶ cm/s.

As to `COC(=O)c1cccc(C)c1NC(=O)C[P+]1(Cc2ccccc2)CCCCC1` [Compound 16], the inhibition at 3 µM against NaV1.7 [1] lay in the range of 70 to 90%.

Consider `CCOC(=O)c1cccc(Cl)c1NC(=O)C[P+]1(Cc2ccccc2)CCCCC1` [Compound 17], for which the inhibition at 3 µM against NaV1.7 [1] was more than 90%; against NaV1.7 [2], 40 to 70%. The compound further showed an apparent permeability (Papp) at 4 h, 50 uM in series [3] of more than 10 ×10⁻⁶ cm/s.

In the case of `CCOC(=O)c1cccc(CC)c1NC(=O)C[P+]1(Cc2ccccc2)CCCCC1` [Compound 19], on NaV1.7 [1], the inhibition at 3 µM was in the range of 70 to 90%. The compound further showed an inhibition at 10 µM against NaV1.7 [2] of 40 to 70%. The apparent permeability (Papp) at 4 h, 50 uM in series [3] was less than 0.1 ×10⁻⁶ cm/s.

`CCOC(=O)c1cccc(OCC)c1NC(=O)C[P+]1(Cc2ccccc2)CCCCC1` [Compound 20]: the inhibition at 3 µM was more than 90% at NaV1.7 [1] and less than 40% on NaV1.7 [2]. The apparent permeability (Papp) at 4 h, 50 uM in series [3] was less than 0.1 ×10⁻⁶ cm/s.

As for `CC[P+](CC)(CC)CC(=O)Nc1c(C)cccc1C(=O)OC.[Br-]` [Compound 21], the inhibition at 3 µM at NaV1.7 [1] is less than 40%. In series [3], the Papp at 4 h, 50 uM was less than 0.1 ×10⁻⁶ cm/s.

The compound `CCCC[P+](CCCC)(CCCC)CC(=O)Nc1c(C)cccc1C(=O)OC.[Br-]` [Compound 22] had an inhibition at 3 µM against NaV1.7 [1] of 70 to 90%. The apparent permeability coefficient (Papp) at 4 h, 50 uM in series [3] was less than 0.1 ×10⁻⁶ cm/s.

The compound `COC(=O)c1cccc(C)c1NC(=O)C[P+](c1ccccc1)(c1ccccc1)c1ccccc1` [Compound 23] returned an inhibition at 3 µM against NaV1.7 [1] of less than 40%. Further, in series [3], the Papp at 4 h, 50 uM was less than 0.1 ×10⁻⁶ cm/s.

Usually inhibition stands for how much of the control response was suppressed. A word on the Papp: it is a coefficient for how fast a substance crosses the barrier. A lower Papp goes with slow passage.
